Measurements taken from the Kinase Knowledgebase extract (Sharma et al. 2016).

biological target: MAPK14 (UniProt Q16539); assay: Inhibition of MAPK14 Kinase Activity
Sequence (Q16539 whole entry, looked up): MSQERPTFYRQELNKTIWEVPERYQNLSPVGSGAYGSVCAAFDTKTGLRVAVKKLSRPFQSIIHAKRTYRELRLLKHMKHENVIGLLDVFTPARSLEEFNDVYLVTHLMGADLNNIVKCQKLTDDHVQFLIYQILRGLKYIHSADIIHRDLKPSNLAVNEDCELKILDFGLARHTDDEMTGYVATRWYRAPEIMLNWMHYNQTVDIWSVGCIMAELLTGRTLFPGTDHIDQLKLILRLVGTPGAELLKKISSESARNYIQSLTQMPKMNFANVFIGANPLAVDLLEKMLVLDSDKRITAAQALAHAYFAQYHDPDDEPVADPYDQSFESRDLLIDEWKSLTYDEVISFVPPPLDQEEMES

IC50 [µM]	SMILES
≤ 5	CC(C)S(=O)(=O)n1c(N)nc2ccc(-c3nc(C4CCNCC4)[nH]c3-c3ccc(F)cc3)cc21
≤ 5	CC(C)S(=O)(=O)n1c(N)nc2ccc(-c3c(-c4ccccc4)ncn3C)cc21
≤ 5	Cc1nc(-c2ccc3nc(N)n(S(=O)(=O)C(C)C)c3c2)c(-c2ccc(F)cc2F)[nH]1
≤ 5	CC(C)S(=O)(=O)n1c(N)nc2ccc(-c3cn[nH]c3-c3ccccc3)cc21
≤ 5	CC(C)S(=O)(=O)n1c(N)nc2ccc(-c3c(-c4ccccc4)ncn3Cc3ccc(F)cc3)cc21
≤ 5	NCCc1nc2ccc(-c3nc(-c4c(F)cccc4F)[nH]c3-c3ccccc3)cc2[nH]1
≤ 5	CC(C)S(=O)(=O)n1c(N)nc2ccc(-c3c(-c4ccccc4)ncn3CC3CC3)cc21
≤ 5	CC(C)S(=O)(=O)n1c(N)nc2ccc(-c3c(-c4ccccc4)ncn3[C@H](CO)CC3CCCCC3)cc21
≤ 5	Nc1nc2ccc(-c3c(-c4ccccc4)ncn3C3CCCCC3)cc2s1
≤ 5	CC(C)S(=O)(=O)n1c(N)nc2ccc(-c3nc(-c4ccc(OCCN5CCCC5)c(F)c4)[nH]c3-c3ccccc3)cc21
≤ 5	CC(C)S(=O)(=O)n1c(N)nc2ccc(-c3nc(CN(C)C)[nH]c3-c3ccccc3)cc21
≤ 5	CC(C)S(=O)(=O)n1c(N)nc2ccc(-c3nc(-c4cccc(F)c4F)[nH]c3-c3ccccc3)cc21
≤ 5	CC(C)S(=O)(=O)n1c(N)nc2ccc(-c3c(-c4ccc(F)cc4F)ncn3C)cc21
≤ 5	CC(C)S(=O)(=O)n1c(N)nc2ccc(-c3c(-c4ccccc4)nc4n3CCC4)cc21
≤ 5	CCOC(=O)N1CCC(n2cnc(-c3ccccc3F)c2-c2ccc3nc(N)n(S(=O)(=O)C(C)C)c3c2)CC1
≤ 5	CC(C)S(=O)(=O)n1c(N)nc2ccc(-c3c(-c4ccccc4)nc(-c4cccs4)n3C)cc21
≤ 5	CC(C)S(=O)(=O)n1c(N)nc2ccc(-c3nc[nH]c3-c3cccc(F)c3F)cc21
≤ 5	CC(C)S(=O)(=O)n1c(N)nc2ccc(-c3nc(-c4c(F)cccc4F)[nH]c3-c3ccccc3)cc21
≤ 5	CC(C)S(=O)(=O)n1c(N)nc2ccc(-c3nc(-c4cccs4)[nH]c3-c3cccc(C(F)(F)F)c3)cc21
≤ 5	Nc1nc2ccc(-c3nc(-c4c(F)cccc4F)[nH]c3-c3ccccc3)cc2[nH]1
≤ 5	CC(C)S(=O)(=O)n1c(N)nc2ccc(-c3c(-c4ccccc4)ncn3C3CCCCC3)cc21
≤ 5	CC(C)S(=O)(=O)n1c(N)nc2ccc(-c3c(-c4ccccc4)ncn3C3CCN(Cc4ccccc4)CC3)cc21

IC50 [µM]	SMILES
≤ 5	CC(C)S(=O)(=O)n1c(N)nc2ccc(-c3c(-c4ccccc4)ncn3Cc3cccc(F)c3)cc21
≤ 5	CC(C)S(=O)(=O)n1c(N)nc2ccc(-c3[nH]n(-c4ccc(C(F)(F)F)cc4)c(=O)c3-c3ccccc3)cc21
≤ 5	CC(C)S(=O)(=O)n1c(N)nc2ccc(-c3c(-c4ccccc4)ncn3[C@@H]3CCCC[C@H]3CO)cc21
≤ 5	CC(C)S(=O)(=O)n1c(N)nc2ccc(-c3nc(-c4cccs4)[nH]c3-c3ccccc3)cc21
≤ 5	CC(C)S(=O)(=O)n1c(N)nc2ccc(-c3c(-c4ccccc4)ncn3C3CCCC3)cc21
≤ 5	CC(C)S(=O)(=O)n1c(N)nc2ccc(-c3c(-c4ccccc4)ncn3C3CCC(=O)CC3)cc21
≤ 5	CC(C)S(=O)(=O)n1c(N)nc2ccc(-c3nc(CN(C)CCN(C)C)[nH]c3-c3ccccc3)cc21
≤ 5	CC(C)S(=O)(=O)n1c(N)nc2ccc(-c3nc(CCC(=O)O)[nH]c3-c3ccccc3)cc21
≤ 5	CC(C)CN1CCC(c2nc(-c3ccc4nc(N)n(S(=O)(=O)C(C)C)c4c3)c(-c3ccc(F)cc3)[nH]2)CC1
≤ 5	CC(C)S(=O)(=O)n1c(N)nc2ccc(-c3nc(-c4ccc(OCCN5CCOCC5)c(F)c4)[nH]c3-c3ccccc3)cc21
≤ 5	CC(C)S(=O)(=O)n1c(N)nc2ccc(-c3c(-c4ccccc4)ncn3C3CCC(O)CC3)cc21 (stereo not given)
≤ 5	CC(C)S(=O)(=O)n1c(N)nc2ccc(-c3c(-c4ccc(F)cc4)ncn3C3CCNCC3)cc21
≤ 5	CC(C)S(=O)(=O)n1c(N)nc2ccc(-c3c(-c4ccccc4F)ncn3C3CC3)cc21
≤ 5	COc1ccc(Cn2cnc(-c3ccccc3)c2-c2ccc3ncn(S(=O)(=O)C(C)C)c3c2)cc1
≤ 5	CC(C)S(=O)(=O)n1c(N)nc2ccc(-c3nc(-c4ccc(C(F)(F)F)cc4)[nH]c3-c3ccccc3)cc21
≤ 5	Cc1ccsc1-c1nc(-c2ccc3nc(N)n(S(=O)(=O)C(C)C)c3c2)c(-c2ccccc2)[nH]1
≤ 5	CC(C)S(=O)(=O)n1c(N)nc2ccc(-c3[nH]n(-c4cc(F)ccc4F)c(=O)c3-c3ccccc3)cc21
≤ 5	CC(C)S(=O)(=O)n1c(N)nc2ccc(-c3nc(-c4ncc[nH]4)[nH]c3-c3ccccc3)cc21
≤ 5	CCn1cnc(-c2ccccc2)c1-c1ccc2nc(N)n(S(=O)(=O)C(C)C)c2c1
≤ 5	CC(C)S(=O)(=O)n1c(N)nc2ccc(-c3c(-c4ccccc4)ncn3C3CCC4(CC3)OCCO4)cc21
≤ 5	CC(C)S(=O)(=O)n1c(N)nc2ccc(-c3nc(-c4ccc(NS(C)(=O)=O)cc4)[nH]c3-c3ccccc3)cc21
≤ 5	C#Cc1nc(-c2ccccc2F)c(-c2ccc3nc(N)n(S(=O)(=O)C(C)C)c3c2)n1C1CC1

IC50 [µM]	SMILES
≤ 5	CC(C)S(=O)(=O)n1c(N)nc2ccc(-c3c(-c4ccccc4)nn4c3CCC4)cc21
≤ 5	CC(C)S(=O)(=O)n1c(N)nc2ccc(-c3nc(-c4cc(F)cc(F)c4)[nH]c3-c3ccccc3)cc21
≤ 5	CC(C)S(=O)(=O)n1c(N)nc2ccc(-c3nc(-c4ccc(Cl)cc4)[nH]c3-c3ccccc3)cc21
≤ 5	CC(C)S(=O)(=O)n1c(N)nc2ccc(-c3nc(-c4ccc(F)cc4F)[nH]c3-c3ccccc3)cc21
≤ 5	CC(C)S(=O)(=O)n1c(N)nc2ccc(-c3nc(-c4ccncc4)[nH]c3-c3ccccc3)cc21
≤ 5	Nc1nc2ccc(-c3nc[nH]c3-c3ccccc3)cc2s1
≤ 5	CCOC(=O)/C=C/c1nc(-c2ccc3nc(N)n(S(=O)(=O)C(C)C)c3c2)c(-c2ccccc2)[nH]1
≤ 5	CC(C)S(=O)(=O)n1c(N)nc2ccc(-c3c(-c4cccc(F)c4)ncn3C3CC3)cc21
≤ 5	CC(C)S(=O)(=O)n1c(N)nc2ccc(-c3c(-c4cccc(F)c4F)ncn3C)cc21
≤ 5	Cc1cccn2c(-c3ccc4nc(N)n(S(=O)(=O)C(C)C)c4c3)c(-c3ccccc3)nc12
≤ 5	CC(C)S(=O)(=O)n1c(N)nc2ccc(-c3nc(-c4ccc(OCCN5CCCCC5)cc4)[nH]c3-c3ccccc3)cc21
≤ 5	CC(C)S(=O)(=O)n1c(N)nc2ccc(-c3c(-c4ccc(F)cc4)ncn3C3CCN(Cc4ccccc4)CC3)cc21
≤ 5	CC(C)S(=O)(=O)n1c(N)nc2ccc(-c3nc(C(C)(C)C)[nH]c3-c3ccccc3)cc21
≤ 5	CC(C)S(=O)(=O)n1c(N)nc2ccc(-c3c(-c4ccccc4)ncn3CCN3CCOCC3)cc21
≤ 5	CNc1ccc(-c2nc(-c3ccc4nc(N)n(S(=O)(=O)C(C)C)c4c3)c(-c3ccccc3)[nH]2)c(F)c1
≤ 5	CC(C)S(=O)(=O)n1c(N)nc2ccc(-c3nc[nH]c3-c3ccc(F)cc3)cc21
≤ 5	CC(C)S(=O)(=O)n1c(N)nc2ccc(-c3nc(C4CCN(CCC(F)(F)F)CC4)[nH]c3-c3ccccc3)cc21
≤ 5	CC(C)S(=O)(=O)n1c(N)nc2ccc(-c3nc[nH]c3-c3cccc(F)c3)cc21
≤ 5	CC(C)S(=O)(=O)n1c(N)nc2ccc(-c3nc(C4CCOCC4)[nH]c3-c3ccc(F)cc3)cc21
≤ 5	CC(C)S(=O)(=O)n1c(N)nc2ccc(-c3nc(-c4ccc(Cl)s4)[nH]c3-c3ccccc3)cc21
≤ 5	CC(C)S(=O)(=O)n1c(N)nc2ccc(-c3c(-c4ccc(F)cc4F)ncn3C3CCCCC3)cc21
≤ 5	CC(C)S(=O)(=O)n1c(N)nc2ccc(-c3nc(-c4ccc(N5CCCC5)cc4)[nH]c3-c3ccccc3)cc21

IC50 [µM]	SMILES
≤ 5	Cc1cc(-c2ccc3nc(N)n(S(=O)(=O)C(C)C)c3c2)n(-c2ccccc2)n1
≤ 5	CC(C)S(=O)(=O)n1c(N)nc2ccc(-c3nc(-c4cccs4)n(C)c3-c3ccccc3)cc21
≤ 5	C#Cc1nc(-c2ccccc2)c(-c2ccc3nc(N)n(S(=O)(=O)C(C)C)c3c2)n1C1CCCCC1
≤ 5	CC(C)S(=O)(=O)n1c(N)nc2ccc(-c3nc(-c4ccc([N+](=O)[O-])cc4)[nH]c3-c3ccccc3)cc21
≤ 5	Cc1nc(-c2ccc3nc(N)n(S(=O)(=O)C(C)C)c3c2)c(-c2ccc(F)cc2F)n1Cc1ccccc1
≤ 5	CC(C)S(=O)(=O)n1c(N)nc2ccc(-c3c(-c4ccccc4F)nc(-c4ccc(F)cc4F)n3C3CC3)cc21
≤ 5	CC(C)S(=O)(=O)n1c(N)nc2ccc(-c3sc(-c4ccccc4)nc3-c3ccccc3)cc21
≤ 5	CC(C)S(=O)(=O)n1c(N)nc2ccc(-c3c(-c4ccccc4)ncn3CCCN3CCOCC3)cc21
≤ 5	CC(C)S(=O)(=O)n1c(N)nc2ccc(-c3c(-c4ccccc4)ncn3[C@H](C)CO)cc21
≤ 5	CC(C)S(=O)(=O)n1c(N)nc2ccc(-c3nc(-c4cccc(OCCN5CCCC5)c4)[nH]c3-c3ccccc3)cc21
≤ 5	CC(C)S(=O)(=O)n1c(N)nc2ccc(-c3nc(-c4ccccc4F)[nH]c3-c3ccccc3)cc21
≤ 5	Nc1nc2ccc(-c3nc[nH]c3-c3ccccc3)cc2[nH]1
≤ 5	CC(C)S(=O)(=O)n1c(N)nc2ccc(-c3nc(-c4ccccc4N4CCOCC4)[nH]c3-c3ccccc3)cc21
≤ 5	CC(C)S(=O)(=O)n1c(N)nc2ccc(-c3nc(C4CCNCC4)[nH]c3-c3ccccc3)cc21
≤ 5	CC(C)S(=O)(=O)n1c(N)nc2ccc(-c3c(-c4ccccc4)ncn3[C@@H](C)CO)cc21
≤ 5	CC(C)S(=O)(=O)n1c(N)nc2ccc(-c3nc(C4CCN(C(=O)OC(C)(C)C)CC4)[nH]c3-c3ccccc3)cc21
≤ 5	CC(C)S(=O)(=O)n1c(N)nc2ccc(-c3c(-c4cccc(F)c4F)ncn3[C@H]3CC[C@H](O)CC3)cc21
≤ 5	CC(C)S(=O)(=O)n1c(N)nc2ccc(-c3nc(-c4ccc(N)cc4F)[nH]c3-c3ccccc3)cc21
≤ 5	CC(C)S(=O)(=O)n1c(N)nc2ccc(-c3c(-c4ccccc4)ncn3Cc3ccc(F)cc3F)cc21
